Reference: ChEMBL document CHEMBL4665683, “Oxygenated Geosmins and Plant-like Eudesmanes from a Bacterial Mangrove Endophyte” (2020)

Assays:
Type in all cases: functional
Pseudomonas aeruginosa [1] = assay: Antibacterial activity against Pseudomonas aeruginosa BG137 B7 assessed as zone of inhibition after 24 hrs by disk diffusion method
Bacillus subtilis = assay: Antibacterial activity against Bacillus subtilis ATCC 6633 assessed as zone of inhibition after 24 hrs by disk diffusion method
Escherichia coli = assay: Antibacterial activity against Escherichia coli SG458 assessed as zone of inhibition after 24 hrs by disk diffusion method
Staphylococcus aureus [2] = assay: Antibacterial activity against Staphylococcus aureus SG511 assessed as zone of inhibition after 24 hrs by disk diffusion method
Mycolicibacterium vaccae = assay: Antibacterial activity against Mycobacterium vaccae IMET 10670 assessed as zone of inhibition after 24 hrs by disk diffusion method
Pseudomonas aeruginosa [3] = assay: Antibacterial activity against Pseudomonas aeruginosa K799/61 assessed as zone of inhibition after 24 hrs by disk diffusion method
Enterococcus faecalis = assay: Antibacterial activity against vancomycin-resistant Enterococcus faecalis 1528 R10 assessed as zone of inhibition after 24 hrs by disk diffusion method
Staphylococcus aureus [4] = assay: Antibacterial activity against methicillin-resistant Staphylococcus aureus 134/94 R9 assessed as zone of inhibition after 24 hrs by disk diffusion method
Penicillium chrysogenum = assay: Antifungal activity against Penicillium chrysogenum JP36 assessed as zone of inhibition after 24 hrs by disk diffusion method
[5] = tested on: Sporobolomyces salmonicolor; assay: Antifungal activity against Sporidiobolus salmonicolor SBUG 549 assessed as zone of inhibition after 24 hrs by disk diffusion method

Compound	inhibition zone (IZ) (Pseudomonas aeruginosa [1]) [mm]	inhibition zone (IZ) (Bacillus subtilis) [mm]	inhibition zone (IZ) (Escherichia coli) [mm]	inhibition zone (IZ) (Staphylococcus aureus [2]) [mm]	inhibition zone (IZ) (Mycolicibacterium vaccae) [mm]	inhibition zone (IZ) (Pseudomonas aeruginosa [3]) [mm]	inhibition zone (IZ) (Enterococcus faecalis) [mm]	inhibition zone (IZ) (Staphylococcus aureus [4]) [mm]	inhibition zone (IZ) (Penicillium chrysogenum) [mm]	inhibition zone (IZ) [5] [mm]
C[C@H]1CCC[C@@]2(C)CC[C@@H](O)C[C@]12O	10	10	10	0	0	10	0	0	0	0
C[C@H]1C(=O)CC[C@@]2(C)CCCC[C@]12O	10	10	0	0	0	10	10	0	0	0
C[C@H]1CCC[C@@]2(C)CC[C@@H](C(C)(C)O)C[C@]12O	11	12	10	12	14	11	11	11	12	12
C[C@@H]1[C@H](O)[C@@H](C)/C=C/C=C/C=C/C=C/C=C/C=C/C=C/[C@H](O[C@@H]2O[C@H](C)[C@@H](O)[C@H](N)[C@@H]2O)C[C@@H]2O[C@](O)(C[C@@H](O)C[C@@H](O)[C@H](O)CC[C@@H](O)C[C@@H](O)CC(=O)O[C@H]1C)C[C@H](O)[C@H]2C(=O)O [AMPHOTERICIN B]	–	–	–	–	13	–	–	–	17	13
O=C(N[C@H](CO)[C@H](O)c1ccc([N+](=O)[O-])cc1)C(Cl)Cl [CHLORAMPHENICOL]	24	29	23	17	20	24	17	0	–	–
